The subject of the experiment is M-Rezeptoren der Bronchien, des Herzens und der Harnblase. As to the kind of experiment: Effect on M receptors of bronchi, heart and urinary bladder of anaesthetised guinea pigs (acetylcholine-induced bronchoconstriction, bradycardia, bladder tension). The format is in vivo, Meerschweinchen. The text has this:
1. Wirkung auf M-Rezeptoren der Bronchien, des Herzens und der Harnblase anaesthetisierter Meerschweinchen
Meerschweinchen beiderlei Geschlechts (550-600 g Körpergewicht) wurden mit Urethan (1,4 gikg, i.p.) anaesthetisiert. Eine Kanüle wurde zur Injektion der Wirkstoffe in die Jugularvene eingeführt. 220 1.U."kg Heparin wurden intravenös injiziert. Es wurde eine Kanüle in die Trachea eingeführt; die Tiere wurden künstlich mit sauerstoffangereicherter Luft mittels einer positiven Druckpumpe (Braun-Melsungen) bei einer Rate von 80 Schlägen pro Minute beatmet. Ein Ast der Trachealkanüle wurde mit einem Wassermanometer von 10 cm Höhe verbunden. Das Beatmungsvolumen wurde so eingestellt, daß der maximale intratracheale Druck während der Beatmung gerade den Druck einer 10 cm-Wassersäule erreichte.
Die Werte wurden mit einem IFD Aufnahmegerät registriert. Vor dem Versuch wurde die Trachea für eine kurze Zeit abgeklemmt, um den maximal möglichen Grad der Bronchokonstriktion zur Kalibrierung zu erzeugen. […] Die Herzfrequenz wurde mit einem Frequenzmesser, der durch arterielle Pulswellen ausgelöst wird, gemessen.
Es wurde ein kleiner medianer Bauchschnitt gesetzt und die Harnblase an einem Kraft-Transducer unter einer Ruhespannung von 1 Gramm angebunden.
Die zu testenden Wirksubstanzen wurden über die Jugularvene injiziert, 5 Minuten später wurde die Spannungszunahme der Blase (in Gramm), der Bronchialwiderstand (in %) und die Abnahme der Herzfrequenz (Schläge pro Minute) nach Gabe von Acetylcholin (50 ug/kg i.v. und i.a.) gemessen. Es wurden dosis-abhängige Kurven durch Wiedergabe der prozentualen Hemmung der Bronchokonstriktion, Bradycardie und der Spannungszunahme der Blase gegen den Logarithmus der Dosis (mol/kg) der zu untersuchenden Wirkstoffe aufgezeichnet. Die Ergebnisse werden angegeben als Mittel- werte (n=4-6). Ergebnisse siehe Tabelle I.

[1] abbreviates: qualitative statement on reference substances, summing up the tests of Tabelle I-III.

Take `CN1C2CCC1CC(OC(=O)C(CO)c1ccccc1)C2` (racemic) [Z, Atropin]: where the note is “in vivo”, the “Selektivität (glatte Muskulatur gegenüber Herzfrequenz oder Speichelsekretion)” value (“Selektivität” for short) was “keine Selektivität”.
Regarding `CN1CCN(CC(=O)N2c3ccccc3C(=O)Nc3cccnc32)CC1` [Y, 5,11-Dihydro-11-[(4-methyl-1-piperazinyl)acetyl]-6H-pyrido[2,3-b][1,4]benzodiazepin-6-on], the “Selektivität” value under setting [1] is recorded as “keine Selektivität”.
As for `CCN(CC)CC1CCCCN1CC(=O)N1c2ccccc2C(=O)Nc2cccnc21` (stereo not drawn) [X, 11-[[2-[(Diethylamino)methyl]-1-piperidinyl]acetyl]-5,11-dihydro-6H-pyrido[2,3-b][1,4]benzodiazepin-6-on], under setting [1], the “Selektivität” value is given as “höhere Wirksamkeit auf kardiale Muskarinrezeptoren”.

These data come from patent EP0417631A2, “Condensed diazepinones, process for their preparation, and medicaments containing these compounds” (Dr. Karl Thomae GmbH, priority 1989, dated 1991).
